Source: article PMC6100543, “Parthenolide Inhibits STAT3 Signaling by Covalently Targeting Janus Kinases” (Molecules : A Journal of Synthetic Chemistry and Natural …, 2018)

Target: T1, JAK2 (Mus musculus, UniProt Q62120)
T1 construct: JAK2-FLAG, overexpressed in HEK293 and immunoprecipitated
Experiment: in vitro kinase assay with immunoprecipitated JAK2-FLAG; LC-MS/MS of PN-modified tryptic peptides
Type: biochemical

T1 sequence (Q62120 whole entry): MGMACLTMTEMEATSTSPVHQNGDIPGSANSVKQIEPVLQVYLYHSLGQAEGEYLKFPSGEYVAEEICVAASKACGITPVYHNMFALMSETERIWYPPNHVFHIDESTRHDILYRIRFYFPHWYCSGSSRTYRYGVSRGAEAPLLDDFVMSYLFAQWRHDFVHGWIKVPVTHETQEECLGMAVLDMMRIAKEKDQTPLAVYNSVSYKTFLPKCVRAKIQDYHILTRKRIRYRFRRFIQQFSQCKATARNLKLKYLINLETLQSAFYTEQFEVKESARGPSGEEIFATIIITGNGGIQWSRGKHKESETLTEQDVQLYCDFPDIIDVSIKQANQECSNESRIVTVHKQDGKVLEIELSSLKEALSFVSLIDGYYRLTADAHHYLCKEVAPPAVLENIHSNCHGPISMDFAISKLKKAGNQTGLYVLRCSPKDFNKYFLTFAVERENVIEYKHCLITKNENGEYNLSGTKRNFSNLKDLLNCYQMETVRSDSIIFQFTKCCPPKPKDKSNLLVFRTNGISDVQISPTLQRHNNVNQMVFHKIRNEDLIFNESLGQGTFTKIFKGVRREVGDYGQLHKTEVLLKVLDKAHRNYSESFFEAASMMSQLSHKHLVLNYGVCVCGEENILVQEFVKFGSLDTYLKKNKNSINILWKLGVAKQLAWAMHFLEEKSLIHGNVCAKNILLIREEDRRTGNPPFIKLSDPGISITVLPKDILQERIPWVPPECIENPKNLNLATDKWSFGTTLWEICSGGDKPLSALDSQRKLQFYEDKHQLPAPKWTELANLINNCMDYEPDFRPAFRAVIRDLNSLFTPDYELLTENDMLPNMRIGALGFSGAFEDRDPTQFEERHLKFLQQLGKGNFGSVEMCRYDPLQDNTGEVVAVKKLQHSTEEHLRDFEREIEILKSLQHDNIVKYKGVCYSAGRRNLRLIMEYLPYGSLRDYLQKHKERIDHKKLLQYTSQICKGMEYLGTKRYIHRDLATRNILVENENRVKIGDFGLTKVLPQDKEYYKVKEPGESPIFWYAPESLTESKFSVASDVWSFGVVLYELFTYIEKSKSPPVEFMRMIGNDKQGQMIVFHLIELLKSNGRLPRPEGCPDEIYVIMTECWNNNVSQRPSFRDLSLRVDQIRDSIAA

C=C1C(=O)O[C@H]2[C@H]1CC/C(C)=C/CC[C@@]1(C)O[C@@H]21 [PN, parthenolide]
IC50: 3.94 µM
